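A five-concentration, 48-hour dose response in 96-well plates underlies each endpoint, interpolated linearly between surrounding concentrations. TGI is the concentration that stops growth completely.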
Tests used:
Experiment in all cases: DTP human tumour cell line panel, 48 h
COLO 205 colon = system: COLO 205 colon
SK-MEL-2 melanoma = system: SK-MEL-2 melanoma
HL-60(TB) leukemia = system: HL-60(TB) leukemia
MOLT-4 leukemia = system: MOLT-4 leukemia
TK-10 renal = system: TK-10 renal
A549 NSCLC = system: A549 NSCLC
SW-620 colon = system: SW-620 colon
IGROV1 ovarian = system: IGROV1 ovarian
OVCAR-5 ovarian = system: OVCAR-5 ovarian
SK-MEL-28 melanoma = system: SK-MEL-28 melanoma
SN12C renal = system: SN12C renal
PC-3 prostate = system: PC-3 prostate
SR leukemia = system: SR leukemia
ACHN renal = system: ACHN renal
HT29 colon = system: HT29 colon
CCRF-CEM leukemia = system: CCRF-CEM leukemia
MDA-N = system: MDA-N
MCF7 breast = system: MCF7 breast
SF-539 CNS = system: SF-539 CNS
NCI-H23 lung = system: NCI-H23 lung
HCT-116 colon = system: HCT-116 colon
OVCAR-8 ovarian = system: OVCAR-8 ovarian
HOP-62 NSCLC = system: HOP-62 NSCLC
HS 578T breast = system: HS 578T breast
OVCAR-4 ovarian = system: OVCAR-4 ovarian
MDA-MB-231 breast = system: MDA-MB-231 breast
LOX IMVI melanoma = system: LOX IMVI melanoma
SF-268 CNS = system: SF-268 CNS
M14 melanoma = system: M14 melanoma
BT-549 breast = system: BT-549 breast
RXF 393 renal = system: RXF 393 renal
SF-295 CNS = system: SF-295 CNS
SK-MEL-5 melanoma = system: SK-MEL-5 melanoma
HCT-15 colon = system: HCT-15 colon
UACC-257 melanoma = system: UACC-257 melanoma
NCI/ADR-RES ovarian = system: NCI/ADR-RES ovarian
SK-OV-3 ovarian = system: SK-OV-3 ovarian
DU-145 prostate = system: DU-145 prostate
HOP-92 NSCLC = system: HOP-92 NSCLC
U251 CNS = system: U251 CNS
NCI-H460 lung = system: NCI-H460 lung
MALME-3M melanoma = system: MALME-3M melanoma
UO-31 renal = system: UO-31 renal
K-562 leukemia = system: K-562 leukemia
NCI-H522 lung = system: NCI-H522 lung
KM12 colon = system: KM12 colon
UACC-62 melanoma = system: UACC-62 melanoma
SNB-75 CNS = system: SNB-75 CNS
786-0 renal = system: 786-0 renal
T-47D breast = system: T-47D breast
SNB-19 CNS = system: SNB-19 CNS
RPMI-8226 leukemia = system: RPMI-8226 leukemia
OVCAR-3 ovarian = system: OVCAR-3 ovarian
NCI-H226 lung = system: NCI-H226 lung
MDA-MB-435 = system: MDA-MB-435
A498 renal = system: A498 renal
EKVX NSCLC = system: EKVX NSCLC

**Q.** With `Cc1ccc(S(=O)(=O)NC(=O)NC(CC(=O)O)C(=O)O)cc1` (centres undefined) as the compound, how does the TGI (COLO 205 colon) read?
**A.** > 100 µM

**Q.** And the TGI (SK-MEL-2 melanoma)?
**A.** > 100 µM

**Q.** And the TGI (HL-60(TB) leukemia)?
**A.** > 100 µM

**Q.** And the TGI (MOLT-4 leukemia)?
**A.** > 100 µM

**Q.** What about the TGI (TK-10 renal) of the same compound?
**A.** > 100 µM

**Q.** What about the TGI (A549 NSCLC) of the same compound?
**A.** > 100 µM

**Q.** What about the TGI (SW-620 colon) of the same compound?
**A.** > 100 µM

**Q.** What about the TGI (IGROV1 ovarian) of the same compound?
**A.** > 100 µM

**Q.** What about the TGI (OVCAR-5 ovarian) of the same compound?
**A.** > 100 µM

**Q.** And the TGI (SK-MEL-28 melanoma)?
**A.** > 100 µM

**Q.** And the TGI (SN12C renal)?
**A.** > 100 µM

**Q.** And the TGI (PC-3 prostate)?
**A.** > 100 µM

**Q.** What about the TGI (SR leukemia) of the same compound?
**A.** > 100 µM

**Q.** And the TGI (ACHN renal)?
**A.** > 100 µM

**Q.** What about the TGI (HT29 colon) of the same compound?
**A.** > 100 µM

**Q.** And the TGI (CCRF-CEM leukemia)?
**A.** > 100 µM

**Q.** What about the TGI (MDA-N) of the same compound?
**A.** > 100 µM

**Q.** And the TGI (MCF7 breast)?
**A.** > 100 µM

**Q.** What about the TGI (SF-539 CNS) of the same compound?
**A.** > 100 µM

**Q.** What about the TGI (NCI-H23 lung) of the same compound?
**A.** > 100 µM

**Q.** And the TGI (HCT-116 colon)?
**A.** > 100 µM

**Q.** What about the TGI (OVCAR-8 ovarian) of the same compound?
**A.** > 100 µM

**Q.** What about the TGI (HOP-62 NSCLC) of the same compound?
**A.** > 100 µM

**Q.** And the TGI (HS 578T breast)?
**A.** > 100 µM

**Q.** And the TGI (OVCAR-4 ovarian)?
**A.** > 100 µM

**Q.** What about the TGI (MDA-MB-231 breast) of the same compound?
**A.** > 100 µM

**Q.** What about the TGI (LOX IMVI melanoma) of the same compound?
**A.** > 100 µM

**Q.** And the TGI (SF-268 CNS)?
**A.** > 100 µM

**Q.** And the TGI (M14 melanoma)?
**A.** > 100 µM

**Q.** What about the TGI (BT-549 breast) of the same compound?
**A.** > 100 µM

**Q.** What about the TGI (RXF 393 renal) of the same compound?
**A.** > 100 µM

**Q.** What about the TGI (SF-295 CNS) of the same compound?
**A.** > 100 µM

**Q.** What about the TGI (SK-MEL-5 melanoma) of the same compound?
**A.** > 100 µM

**Q.** And the TGI (HCT-15 colon)?
**A.** > 100 µM

**Q.** What about the TGI (UACC-257 melanoma) of the same compound?
**A.** > 100 µM

**Q.** And the TGI (NCI/ADR-RES ovarian)?
**A.** > 100 µM

**Q.** What about the TGI (SK-OV-3 ovarian) of the same compound?
**A.** > 100 µM

**Q.** What about the TGI (DU-145 prostate) of the same compound?
**A.** > 100 µM

**Q.** And the TGI (HOP-92 NSCLC)?
**A.** > 100 µM

**Q.** What about the TGI (U251 CNS) of the same compound?
**A.** > 100 µM

**Q.** What about the TGI (NCI-H460 lung) of the same compound?
**A.** > 100 µM

**Q.** What about the TGI (MALME-3M melanoma) of the same compound?
**A.** > 100 µM

**Q.** What about the TGI (UO-31 renal) of the same compound?
**A.** > 100 µM

**Q.** What about the TGI (K-562 leukemia) of the same compound?
**A.** > 100 µM

**Q.** And the TGI (NCI-H522 lung)?
**A.** > 100 µM

**Q.** And the TGI (KM12 colon)?
**A.** > 100 µM

**Q.** And the TGI (UACC-62 melanoma)?
**A.** > 100 µM

**Q.** And the TGI (SNB-75 CNS)?
**A.** > 100 µM

**Q.** And the TGI (786-0 renal)?
**A.** > 100 µM

**Q.** And the TGI (T-47D breast)?
**A.** > 100 µM

**Q.** And the TGI (SNB-19 CNS)?
**A.** > 100 µM

**Q.** What about the TGI (RPMI-8226 leukemia) of the same compound?
**A.** > 100 µM

**Q.** With `CC(=O)c1c(O)cc(O)c(-c2c(C)cc(O)c3c2C(=O)c2cccc(O)c2C3=O)c1O` as the compound, how does the TGI (SK-MEL-2 melanoma) read?
**A.** 34.2 µM

**Q.** What about the TGI (HL-60(TB) leukemia) of the same compound?
**A.** 79.7 µM

**Q.** And the TGI (MOLT-4 leukemia)?
**A.** 38.5 µM

**Q.** What about the TGI (TK-10 renal) of the same compound?
**A.** 35.6 µM

**Q.** What about the TGI (A549 NSCLC) of the same compound?
**A.** 34.2 µM

**Q.** And the TGI (SW-620 colon)?
**A.** 36.8 µM

**Q.** And the TGI (IGROV1 ovarian)?
**A.** 29.8 µM

**Q.** What about the TGI (OVCAR-5 ovarian) of the same compound?
**A.** 41.5 µM

**Q.** And the TGI (OVCAR-3 ovarian)?
**A.** 56.2 µM

**Q.** What about the TGI (SK-MEL-28 melanoma) of the same compound?
**A.** 73.5 µM

**Q.** What about the TGI (SN12C renal) of the same compound?
**A.** 36 µM

**Q.** What about the TGI (PC-3 prostate) of the same compound?
**A.** 30.6 µM

**Q.** What about the TGI (SR leukemia) of the same compound?
**A.** 53.8 µM

**Q.** What about the TGI (ACHN renal) of the same compound?
**A.** 25.5 µM

**Q.** What about the TGI (HT29 colon) of the same compound?
**A.** 31.5 µM

**Q.** What about the TGI (MDA-N) of the same compound?
**A.** 30.8 µM

**Q.** And the TGI (MCF7 breast)?
**A.** 29.8 µM

**Q.** And the TGI (SF-539 CNS)?
**A.** 30.3 µM

**Q.** And the TGI (HCT-116 colon)?
**A.** 30 µM

**Q.** What about the TGI (NCI-H226 lung) of the same compound?
**A.** 58.1 µM

**Q.** What about the TGI (OVCAR-8 ovarian) of the same compound?
**A.** 49.5 µM

**Q.** And the TGI (HOP-62 NSCLC)?
**A.** 40.5 µM

**Q.** What about the TGI (MDA-MB-435) of the same compound?
**A.** 34.5 µM

**Q.** And the TGI (HS 578T breast)?
**A.** 34.6 µM

**Q.** And the TGI (OVCAR-4 ovarian)?
**A.** 28.5 µM

**Q.** And the TGI (MDA-MB-231 breast)?
**A.** 41.1 µM

**Q.** What about the TGI (LOX IMVI melanoma) of the same compound?
**A.** 27.4 µM

**Q.** What about the TGI (SF-268 CNS) of the same compound?
**A.** 36.8 µM

**Q.** What about the TGI (A498 renal) of the same compound?
**A.** 29.1 µM

**Q.** And the TGI (M14 melanoma)?
**A.** 51.4 µM

**Q.** And the TGI (EKVX NSCLC)?
**A.** 31.9 µM

**Q.** And the TGI (BT-549 breast)?
**A.** 35.3 µM

**Q.** What about the TGI (SF-295 CNS) of the same compound?
**A.** 26.9 µM

**Q.** What about the TGI (HCT-15 colon) of the same compound?
**A.** 28.6 µM

**Q.** What about the TGI (UACC-257 melanoma) of the same compound?
**A.** 40 µM

**Q.** What about the TGI (NCI/ADR-RES ovarian) of the same compound?
**A.** 42.2 µM

**Q.** What about the TGI (SK-OV-3 ovarian) of the same compound?
**A.** 27.4 µM

**Q.** And the TGI (DU-145 prostate)?
**A.** 30.2 µM

**Q.** And the TGI (HOP-92 NSCLC)?
**A.** 26.1 µM

**Q.** And the TGI (U251 CNS)?
**A.** 27.2 µM

**Q.** And the TGI (NCI-H460 lung)?
**A.** 31.7 µM

**Q.** What about the TGI (MALME-3M melanoma) of the same compound?
**A.** 30.6 µM

**Q.** And the TGI (UO-31 renal)?
**A.** 27.9 µM

**Q.** And the TGI (K-562 leukemia)?
**A.** 62.6 µM

**Q.** What about the TGI (NCI-H522 lung) of the same compound?
**A.** 24.7 µM

**Q.** And the TGI (KM12 colon)?
**A.** 33.5 µM

**Q.** And the TGI (UACC-62 melanoma)?
**A.** 29.1 µM

**Q.** And the TGI (SNB-75 CNS)?
**A.** 38.1 µM

**Q.** What about the TGI (786-0 renal) of the same compound?
**A.** 31.7 µM

**Q.** What about the TGI (T-47D breast) of the same compound?
**A.** 22.7 µM

**Q.** And the TGI (SNB-19 CNS)?
**A.** 39.1 µM

**Q.** And the TGI (RPMI-8226 leukemia)?
**A.** 35.5 µM
